According to US10907187B2, “Fungal strains and methods of use” (DANISCO US INC., priority 2015, dated 2021):
Like-named read-outs stand apart in the source and are kept apart here.

Assays:
Assay type in all cases: cell-based, Trichoderma reesei
[1] = tested on: T. reesei strain RLP37; assay: Liquid medium fungicide screen, conidiospore germination in YEG; conditions: for germination and hyphal growth of conidiospores: 11.25 μM fungicide, overnight at 28° C., 10,000 spores/ml
Procedure: (§1) For use in liquid medium fungicide screens, conidiospores from T. reesei strains RLP37 and RLP37 NikM743T were harvested and diluted to a concentration of 10,000/ml. Equal numbers of spores were inoculated into liquid YEG medium (5 g/L yeast extract, 22 g/1 glucose. H2O) containing 0, 11.25, 22.5, 45 or 90 μM iprodione or fludioxonil and allowed to germinate overnight at 28° C. […] Furthermore, sensitivity of RLP37 and resistance of RLP37 NikM743T persisted when inoculation culture was scaled up to […].

[2] = tested on: T. reesei strain RLP37 NikM743T; assay: as above; conditions: all concentrations tested (11.25, 22.5, 45 or 90 μM), overnight at 28° C.
Procedure: as §1

[3] = tested on: T. reesei strain RLP37 Nik^M743T; assay: Agar (solid) medium fungicide screen, colony growth on Vogel's minimal medium with glucose; conditions: 11.25, 22.5, 45 or 90 μM, agar plates, 3 days at 32° C.
Procedure: (§2) For use in agar (solid) medium fungicide screens or selections, conidiospores from T. reesei strains RLP37 and RLP37 Nik^M743T were harvested and diluted to a concentration such that a known number of spores were plated per 10 cm plate containing nutrient agar Vogel's minimal medium with glucose (Vogel, Microbial Genet. Bull. 13:42-43 (1956); Vogel, Am. Nat. 98:435-446 (1964)). Equal numbers of spores for each strain were spread onto the surface of nutrient agar plates containing 0, 11.25, 22.5, 45 or 90 μM iprodione and allowed to grow for 3 days at 32° C. […] This mixed population of spores was spread onto Vogel's minimal medium agar containing 45 μM iprodione and allowed to grow for 3 days at 32° C. Colonies were counted and evaluated for presence of the nik1^M743T mutation by PCR and sequencing (Sequetech, Mountain View, Calif., USA), using the following primers: […]

[4] = tested on: T. reesei strain RLP37; assay: as above; conditions: agar plates, 3 days at 32° C.
Procedure: as §2

Row | Compound | germination and hyphal growth of conidiospores ([1]; liquid YEG medium) | germination and growth of conidiospores ([1]; concentrations above 11.25 μM (22.5, 45 or 90 μM), liquid YEG medium, overnight at 28° C.) | germination and hyphal growth of conidiospores [2] | colony growth [3] | colony growth ([4]; 45 μM and above) | colony growth ([4]; 11.25 and 22.5 μM) | germination and growth of conidiospores [1]
1 | N#Cc1c[nH]cc1-c1cccc2c1OC(F)(F)O2 [fludioxonil] | clear inhibition of hyphal growth | complete inhibition of germination and growth | germinated and produced elongated hyphae |  |  |  | 
2 | CC(C)NC(=O)N1CC(=O)N(c2cc(Cl)cc(Cl)c2)C1=O [iprodione] | clear inhibition of hyphal growth |  | germinated and produced elongated hyphae | grew similarly to colonies growing on nutrient agar plates without iprodione | failed to grow at all | failed to grow to any larger than the size of the tip of a pin | complete inhibition of germination and growth
